From patent US20120202891A1, “Cannabinoid-Containing Compositions and Methods for Their Use” (UNIVERSITY OF KENTUCKY RESEARCH FOUNDATION, priority 2009, published 2012)
Values joined by “and” are separate entries in the source; they are usually repeats but may differ in a detail not shown here. Equal entries are not always repeated. “Also recorded” adds a separate entry of the source. Where two headings read alike, the source gives them in different places. Marks after values point to notes of the source that are not given here.

Assays:
[1] = tested on: CFA mono-arthritic knee joints in Sprague-Dawley rats; assay: Knee joint circumference in CFA-induced monoarthritis; type: in vivo, rat; details: Post-CBD, four consecutive days (day 4), mean ± SD
[2] = tested on: CFA mono-arthritic knee joints in Sprague-Dawley rats; assay: Knee joint temperature in CFA-induced monoarthritis; type: in vivo, rat; details: for Knee joint temperature: Post-CBD, four consecutive days (day 4), mean ± SD
[3] = tested on: rats with CFA induced mono-arthritis; assay: Secondary thermal hyperalgesia, paw withdrawal latency (PWL) test, CFA rats; type: in vivo, rat
normal rats = assay: Paw withdrawal latency (PWL) test, normal rats; type: in vivo, rat; details: any CBD dose (0.6, 3.1, 6.2 mg/d)
Description: Secondary thermal hyperalgesia was assessed with the paw withdrawal latency (PWL) test (Hargreaves et al. (1988) Pain 32: 77-88). PWLs were measured in response to a radiant heat source shone on one hind paw of the animals from beneath a glass top table. A shortened PWL response in animals with knee joint inflammation was indicative of secondary thermal hyperalgesia. Animals were placed in separate plastic cubicles (4×4×10 in) on a glass top table (2 mm thickness of glass) and allowed to adapt to their new environment for 20-30 min before testing. A small movable metal box that focused a high-intensity light beam through an aperture (0.5 cm×0.5 cm) was attached to an on/off switch and a digital timer. […] At that time, the light is switched off and the number of seconds on the digital timer recorded as the PWL (sec). […] A mean of the 5 trials was calculated for each animal. […]
(§1) Baseline parameters (body weight, knee joint temperature, and knee joint circumference) were obtained before the knee injection of rats with CFA. […] Exploratory activity was monitored prior to initial gel application and on the third day post gel application (after 6 h). […] Blood samples were obtained for CBD plasma quantification, and tissues (knee joints, dorsal root ganglia, spinal cord, brain) were collected after perfusion. […]

normal (non-CFA) rats = assay: Open field exploratory behavioral activity; type: in vivo, rat; details: 0.6 to 62.3 mg/d, pre-dose versus post-dose and among dose groups
Description: Exploratory behavioral activity of the rats was monitored using the Flexfield Animal Activity System (San Diego Instruments; San Diego, Calif.) with a Photobeam Activity System software coupled to a computer according to previously published methods by Zhang et al., (2004) Pharmacol Biochem Behav 77: 145-153. Briefly, six main parameters were recorded: rearing events and rearing time, active time and resting time, total activity (i.e. number of photobeams disturbed in the x-y-z planes while the rat was moving around in the box or involved in stationary movement such as grooming), and distance traveled. Activity testing was conducted in an isolated, temperature controlled area at similar times daily in order to provide consistent results.
as §1, with “CFA. PWL test and exploratory activity testing were also conducted prior to CFA injection. Rats were anesthetized with a short term anesthetic and the left knee joint cavity was injected with CFA for induction of mono-arthritis.” for “CFA.”

[4] = Plasma CBD concentration after topical gel application (LC/MS); type: in vivo, rat; details: plasma concentration versus dose, 0.6, 3.1 and 6.2 mg/d
Description: Baseline parameters (body weight, knee joint temperature, and knee joint circumference) were obtained before the knee injection of rats with CFA. PWL test and exploratory activity testing were also conducted prior to CFA injection. Rats were anesthetized with a short term anesthetic and the left knee joint cavity was injected with CFA for induction of mono-arthritis. On day 3, the back of each animal was shaved. […] Rats received daily treatments for four consecutive days of either vehicle gel, or CBD gel. Gel was applied to the skin in a templated region on the dorsal surface of the rat and rubbed into the skin for 30 sec to ensure complete coverage. The nitrile template was used to ensure specific area reproducibility. […] Exploratory activity was monitored prior to initial gel application and on the third day post gel application (after 6 h). […] Blood samples were obtained for CBD plasma quantification, and tissues (knee joints, dorsal root ganglia, spinal cord, brain) were collected after perfusion. […]
The LC/MS system used to analyze samples was comprised of a Waters Alliance 2695 pump and autosampler, a Micromass™ ZQ detector, and 996 photodiode array detector with MassLynx™ software (Waters Corp., Milford, Mass.). […] The ZQ detector was used with an electrospray ionization (ESI) probe set for single ion monitoring (SIM) for cannabidiol quantification. […]

[5] = cited from earlier work
[6] = hairless guinea pigs, 1% hydroalcoholic CBD gel, up to 8 h post application; cited from earlier work
CB2 = CB2 (Homo sapiens, UniProt P34972); details: cited from earlier work
CB2, sequence (P34972 whole entry, species assumed): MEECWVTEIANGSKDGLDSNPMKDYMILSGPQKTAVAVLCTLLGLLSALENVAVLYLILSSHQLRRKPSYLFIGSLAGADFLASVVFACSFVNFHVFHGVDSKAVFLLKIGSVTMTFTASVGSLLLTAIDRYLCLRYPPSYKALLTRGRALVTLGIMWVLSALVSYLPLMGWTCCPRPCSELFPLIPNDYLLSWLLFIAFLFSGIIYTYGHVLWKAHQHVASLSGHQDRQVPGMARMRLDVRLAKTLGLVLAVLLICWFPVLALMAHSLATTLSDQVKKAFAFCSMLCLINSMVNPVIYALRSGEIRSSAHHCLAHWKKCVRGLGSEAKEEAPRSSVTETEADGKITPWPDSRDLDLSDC

Question: With `C=C(C)C1CCC(C)=CC1c1c(O)cc(CCCCC)cc1O` (stereo not drawn) [CBD, 2-[3-methyl-6-(1-methylethenyl)-2-cyclohexen-1-yl]-5-pentyl-1,3-benzenedi-ol] as the compound, how does the Knee joint circumference ([1]; 0.6 mg/d CBD gel on skin) read?
Answer: 7.0 ± 0.3^b cm

Question: What about the Knee joint circumference ([1]; 3.1 mg/d CBD gel on skin) of the same compound?
Answer: 7.1 ± 0.3^b cm

Question: And the Knee joint circumference ([1]; 6.2 mg/d CBD gel on skin)?
Answer: 6.6±0.2 cm and 6.6 ± 0.2^b* cm

Question: What about the Knee joint circumference ([1]; 62.3 mg/d CBD gel on skin) of the same compound?
Answer: 6.6±0.1 cm and 6.6 ± 0.1^a* cm

Question: What about the “Differences in knee joint temperature among the treatment groups” value ([2]; 0.6 to 62.3 mg/d CBD versus vehicle gel, p>0.05) of the same compound?
Answer: no significant differences

Question: And the Knee joint temperature ([2]; 0.6 mg/d)?
Answer: 31.2 ± 0.7^b ° C.

Question: What about the Knee joint temperature ([2]; 3.1 mg/d) of the same compound?
Answer: 30.6 ± 0.6^b ° C.

Question: And the Knee joint temperature ([2]; 6.2 mg/d)?
Answer: 31.7 ± 2.1^b ° C.

Question: And the Knee joint temperature ([2]; 62.3 mg/d)?
Answer: 30.2 ± 0.9^a ° C.

Question: And the “PWL scores, improvement” value ([3]; 0.6 mg/d and 3.1 mg/d, day 4)?
Answer: did not have improved PWL scores

Question: And the “PWL, improvement compared to CFA rats receiving vehicle gel” value ([3]; 6.2 mg/d, 4 h (d 1) post CBD dosing, p<0.05)?
Answer: improvement

Question: And the “Effect on PWL in normal animals” value (normal rats)?
Answer: no effect; also recorded: not affected

Question: What about the “Exploratory activities, six parameters (rearing events, rearing time, total beams broken, distance traveled, active time, resting time), differences” value (normal (non-CFA) rats) of the same compound?
Answer: No significant (p>0.05) differences; also recorded: no differences in activity measurements

Question: What about the “Linear pharmacokinetic correlation, slope” value [4] of the same compound?
Answer: 1.0

Question: And the Cmax plasma concentration ([5]; hairless guinea pigs dosed once with 6.2 mg/d CBD gel, n=3)?
Answer: 45.8 ± 8.4 ng/mL

Question: And the Cmax plasma concentration ([5]; hairless guinea pigs, 6.2 mg/d CBD gel, after 3 consecutive days of gel application, n=5)?
Answer: 85.6 ± 48.4 ng/mL

Question: And the “Time out to which CBD plasma concentrations were detected” value ([5]; hairless guinea pigs, after a single initial gel application)?
Answer: 120 h

Question: What about the Tmax ([5]; hairless guinea pigs, multiple applications) of the same compound?
Answer: 40.0 ± 14.5 h

Question: What about the Tmax ([5]; hairless guinea pigs, single application) of the same compound?
Answer: 6.7 ± 2.1 h

Question: What about the “Residual drug remaining on the skin surface” value [6] of the same compound?
Answer: approximately 15%

Question: And the “Binding affinity for CB2” value (CB2)?
Answer: little binding affinity
